Reference: patent US20230212163A1, “2-(HET)ARYL-SUBSTITUTED CONDENSED HETEROCYCLIC DERIVATIVES AS PEST CONTROL AGENTS” (Bayer Aktiengesellschaft, priority 2020, published 2023)

Legend:
Assay type in all cases: in vivo
Myzus persicae [1] = assay: Myzus persicae oral test; details: 120 h, application rate 4 ppm, after 5 days, read-out: efficacy
Description: [table] To produce a suitable active compound formulation, 1 part by weight of active compound is dissolved using the specified parts by weight of solvent and made up with water until the desired concentration is attained. 50 μl of the active compound formulation are transferred into microtitre plates and made up to a final volume of 200 μl with 150 μl of IPL41 insect medium (33%+15% sugar). Subsequently, the plates are sealed with parafilm, which a mixed population of green peach aphids (Myzus persicae) within a second microtitre plate is able to puncture and imbibe the solution through. After 5 days, the efficacy in % is determined. 100% means that all the aphids have been killed; 0% means that no aphids have been killed.

Myzus persicae [2] = assay: Myzus persicae spray test; details: application rate 100 g/ha, after 5 days
Description: (§1) [table] To produce a suitable active compound formulation, 1 part by weight of active compound is dissolved using the stated parts by weight of solvent and made up with water containing an emulsifier concentration of 1000 ppm until the desired concentration is attained. To produce further test concentrations, the formulation is diluted with emulsifier-containing water. Discs of Chinese cabbage leaves (Brassica pekinensis) infested by all stages of the green peach aphid (Myzus persicae) are sprayed with an active compound formulation of the desired concentration. After 5 days, the efficacy in % is determined. 100% means that all the aphids have been killed; 0% means that no aphids have been killed.

Phaedon cochleariae = Phaedon cochleariae spray test; details: application rate 100 g/ha, after 7 days
Description: as §1, with “pekinensis)” for “pekinensis) infested by all stages of the green peach aphid (Myzus persicae)”, “concentration and, after drying, populated with larvae of the mustard beetle (Phaedon cochleariae).” for “concentration.”, “7” for “5”, “beetle larvae” for “aphids”

Spodoptera frugiperda [3] = assay: Spodoptera frugiperda spray test (maize leaf discs); details: Spodoptera frugiperda, foliar, 168 h, application rate 100 g/ha, after 7 days
Description: [table] To produce a suitable active compound formulation, 1 part by weight of active compound is dissolved using the stated parts by weight of solvent and made up with water containing an emulsifier concentration of 1000 ppm until the desired concentration is attained. To produce further test concentrations, the formulation is diluted with emulsifier-containing water. Leaf discs of maize (Zea mays) are sprayed with an active compound formulation of the desired concentration and, after drying, populated with caterpillars of the fall armyworm (Spodoptera frugiperda). After 7 days, the efficacy in % is determined. 100% means that all the caterpillars have been killed; 0% means that no caterpillar has been killed.

Heliothis armigera = Heliothis armigera spray test (HELIAR), comparative; details: Helicoverpa armigera, 168 h, 4 ppm, 7 dat, read-out: % efficacy
Description: (§2) [table] To produce a suitable active compound formulation, 1 part by weight of active compound is dissolved using the stated parts by weight of solvent and made up with water containing an emulsifier concentration of 1000 ppm until the desired concentration is attained. To produce further test concentrations, the formulation is diluted with emulsifier-containing water. If the addition of ammonium salts or/and penetrants is required, these are each added in a concentration of 1000 ppm to the formulation solution. Cotton plants (Gossypium hirsutum) are sprayed with an active compound formulation of the desired concentration and, after drying, populated with caterpillars of the cotton bollworm (Heliothis armigera). After the desired time, the kill in % is determined. 100% means that all caterpillars have been killed; 0% means that none of the caterpillars have been killed.

Plutella xylostella = Plutella xylostella spray test (PLUTMA), comparative; details: 168 h, 4 ppm, 7 dat, read-out: % efficacy
Description: as §2, with “solution. Cabbage leaves (Brassica oleracea)” for “solution. Cotton plants (Gossypium hirsutum)”, “concentration and infected” for “concentration and, after drying, populated”, “with larvae” for “with caterpillars”, “the diamondback moth (Plutella xylostella).” for “the cotton bollworm (Heliothis armigera).”

Spodoptera frugiperda [4] = assay: Spodoptera frugiperda spray test (SPODFR, cotton leaves), comparative; details: 168 h, 7 dat, read-out: % efficacy
Description: as §2, with “leaves” for “plants”, “and” for “and, after drying,”, “armyworm (Spodoptera frugiperda).” for “cotton bollworm (Heliothis armigera).”

Diabrotica balteata = Diabrotica balteata spray test; details: Diabrotica balteata, 168 h, application rate 100 g/ha, after 7 days
Description: [table] To produce a suitable active compound formulation, 1 part by weight of active compound is dissolved using the stated parts by weight of solvent and made up with water containing an emulsifier concentration of 1000 ppm until the desired concentration is attained. To produce further test concentrations, the formulation is diluted with emulsifier-containing water. Pre-swollen wheat grains (Triticum aestivum) are incubated in a multiwell plate filled with agar and a little water for one day (5 seed grains per cavity). The germinated wheat grains are sprayed with an active compound formulation of the desired concentration. Subsequently, each cavity is infected with 10-20 beetle larvae of Diabrotica balteata. After 7 days, the efficacy in % is determined. 100% means that all wheat plants have grown as in the untreated, uninfected control; 0% means that no wheat plant has grown.

Meloidogyne incognita = Meloidogyne incognita test; details: application rate 20 ppm, after 14 days
Description: [table] To produce an appropriate active ingredient formulation, 1 part by weight of active ingredient is mixed with the stated amount of solvent and the concentrate is diluted to the desired concentration with water. Vessels are filled with sand, active ingredient solution, an egg/larvae suspension of the southern root-knot nematode (Meloidogyne incognita) and lettuce seeds. The lettuce seeds germinate and the plants develop. The galls develop on the roots. After 14 days, the nematicidal efficacy in % is determined by the formation of galls. 100% means that no galls were found; 0% means that the number of galls on the treated plants corresponds to the untreated control.

Nezara viridula = Nezara viridula spray test; details: Nezara viridula, 96 h, application rate 500 g/ha, after 4 days
Description: as §1, with “Barley plants (Hordeum vulgare)” for “Discs of Chinese cabbage leaves (Brassica pekinensis) infested by all stages of the green peach aphid (Myzus persicae)”, “concentration and are infected with larvae of the Southern green shield bug (Nezara viridula).” for “concentration.”, “4” for “5”, “all of” for “all”, “shield bugs” for “aphids”, “none of the shield bugs” for “no aphids”

| Compound | pest or weed control at 4 ppm (Myzus persicae [1]) [%] | activity (Myzus persicae [2]) [%] | activity (Phaedon cochleariae) [%] | pest or weed control at 100 g/ha (Spodoptera frugiperda [3]) [%] | Emax at 4 ppm (Heliothis armigera) [%] | Emax at 4 ppm (Plutella xylostella) [%] | Emax at 0.8 ppm (Spodoptera frugiperda [4]) [%] | pest or weed control at 100 g/ha (Diabrotica balteata) [%] | nematicidal efficacy (formation of galls) (Meloidogyne incognita) [%] | pest or weed control at 500 g/ha (Nezara viridula) [%] |
| --- | --- | --- | --- | --- | --- | --- | --- | --- | --- | --- |
| CCS(=O)(=O)c1ccc(-n2ncn(C3CC3)c2=O)nc1-c1nc2cc(S(=O)(=O)C(F)(F)F)ccc2o1 [Example I-03] | 100 | 100 | 100 | 100 |  |  |  |  |  |  |
| CCS(=O)(=O)c1ccc(-n2ncn(-c3ccc(F)cc3)c2=O)nc1-c1nc2cc(S(=O)(=O)C(F)(F)F)ccc2o1 [Example I-04] | 100 |  | 100 | 100 | 100 | 100 | 100 |  |  |  |
| CCS(=O)(=O)c1ccc(-n2ncn(-c3ccc(C4(C#N)CC4)cc3)c2=O)nc1-c1nc2cc(S(=O)(=O)C(F)(F)Cl)ccc2o1 [Example I-18] |  |  |  |  |  |  |  | 100 | 100 |  |
| CCS(=O)(=O)c1ccc(-n2ncn(-c3ccc(OC)nc3)c2=O)nc1-c1nc2cc(S(=O)(=O)C(F)(F)F)ccc2o1 [Example I-43] |  |  |  | 83 |  |  |  | 80 | 90 | 90 |
